# Data: patent publication US10494453B2, “Conjugate compound and uses of same” (THE UNIVERSITY OF QUEENSLAND, priority 2013, dated 2019)
# Read-outs that look alike come from different tables or passages of the source.
# Key:
# MPCs [1] = details: cited from earlier work; for Promotion of chondrogenesis of MPCs: absent growth factors or other chondroinductive supplements
# MPCs [2] = assay: CCK8 assay of MPC proliferation; type: cell-based, human; details: 7 days; concentrations equivalent to 5, 10 and 20 μg/ml unbound PPS
# Protocol: (§1) Stro1-selected human MPCs were prepared by Lonza (Walkersville, USA) for Mesoblast Ltd (Melbourne, Australia) according to the isolation procedure described by Gronthos et al. MPCs were cultured in alphaMEM supplemented with 100 U/ml penicillin, 100 μg/ml streptomycin (Gibco/Invitrogen Carlsbad, Calif., USA), 10% batch tested foetal bovine serum (FBS), 2 mM L-Glutamine, 1 mM Sodium Pyruvate, and 100 μM L-ascorbate-2-Phosphate. Tissue culture flasks were maintained at 37° C. in 5% CO2 in an atmosphere with 95% humidity. Upon reaching 70% confluence MPCs were passaged, replating at 2000 cells/cm2.
# MPCs were seeded at a density of 2000 cells/cm2 in a 96-well plate and allowed to adhere for 4 hrs at which point the medium was exchanged for MPC maintenance medium supplemented with PPS, HA, HA-PPS and HA-PPSCOOH at concentrations equivalent to 5, 10 and 20 μg/ml unbound PPS. MPCs were cultured for 7 days with media changes every 2-3 days and the cell number determined by CCK8 assay (Sigma). Briefly, the culture medium was replaced with 100 μl MPC maintenance medium (without phenol red) containing 10% (v/v) CCX8. After 2 hrs the absorbance was read at 450 nm. All samples were performed in triplicate and normalised to blank medium without cells.
# MPCs [3] = assay: qPCR gene expression of MPC pellets (chondrogenic differentiation); type: cell-based, human; details: for Expression of BMP13: over untreated controls
# Protocol: as §1
# (§2) Chondrogenic differentiation was compared for MPCs cultured in maintenance medium and treated with PPS, HA, HA-PPS and HA-PPSCOOH at concentrations equivalent to 5, 10 and 20 μg/ml unbound PPS. These factors were added to the cells prior to pellet formation, which was initiated by centrifuging 2×105 MPCs in a non-adherent U-bottom plate at 500 g for 10 min. MPC pellets were cultured in […] medium with media changes every 3-4 days. After 21 days, samples were taken for analysis by histological staining, DMMB assay and qPCR.
# Total RNA was extracted using an RNeasy Minikit with on-column DNase treatment (Qiagen) according to the manufacturer's instructions, cDNA was synthesized from 250 ng RNA, or the equivalent volume of DNase and RNasefree water for no-RT controls, using the SuperScript® III First-Strand Synthesis System (Invitrogen). qPCR reactions were set-up in a total volume of 10 μl with 1× Platinum SYBR Green qPCR SuperMix-UDG (Invitrogen) and 0.2 μM forward and reverse primers. A 7500 Fast Real-Time PCR System (Applied Biosystems) with fast cycling parameters of 2 min at 50° C., 2 min at 95° C. then 40 cycles of 3 sec at 95° C. and 30 sec at 60° C. followed by a melt curve was used to run the samples. Data was analysed using the 2-^ΔΔct method and normalized back to untreated monolayer levels.
# MPCs [4] = assay: DMMB assay for GAG content of chondrogenic MPC pellets; type: cell-based, human
# Protocol: as §2
# Chondrogenic pellets were collected, rinsed in PBS and lysed in 1 mg/ml Papain in 100 mM sodium phosphate, 5 mM EDTA and 5 mM L-cystein (pH 6.5) overnight at 60° C. Samples of 40 μl were plated in triplicate with the addition of 10 μl 1% BSA in PBS and 50 μl 2×1,9-dimethylmethylene blue (DMMB). These were incubated at room temperature for 15 min and the absorbance at 525 nm read using a Spectramax M5 Fluorometer (Molecular Devices). Samples were normalized to DNA content as assessed by PicoGreen assay (Molecular Probes: performed according to the manufacturer's instructions).
# [5] = Rheological characterisation of PEG/HA hydrogels; type: physicochemical; details: incorporated into PEG/HA hydrogel
# Protocol: All rheological measurements were obtained using an AR G2 rheometer (TA Instruments, New Castle, Del.) in oscillatory mode using a 20 mm diameter stainless steel flat plate and lower Teflon Pelletier surface. The gels were synthesized and, upon addition of the H2O2, immediately vortexed and loaded between the plates of the rheometer with a gap measurement of 1000 μm. Gelation kinetics and final moduli were determined by timesweeps at 37° C., conducted with a controlled strain of 1% and an angular frequency of 6.28 rad/sec. Frequency sweeps were performed between 5.000E-3 to 50 rad/sec at 1% strain. Stress sweeps confirmed that this was within the linear viscoelastic region.
# Swelling of hydrogels = type: physicochemical; details: incorporated into the hydrogels; p<0.05
# Protocol: To determine the degree of swelling, 50 μl gels were synthesized and the dry weight obtained after freeze-drying for 24 hrs (Wd). The gels were then incubated in 500 μl PBS for 24 hrs at […]. The PBS was removed and the gels reweighed (Ws). The degree of swelling was determined by ((Ws-Wd)/Wd) using triplicate gels for each condition. Degradation of 50 μl gels was measured over a period of 3 months using triplicate samples for each condition. After synthesis, the gels were incubated in PBS/0.01% Sodium azide at 37° C. with weekly changes of buffer. At specific tirnepoints all excess PBS was removed and the gels weighed. The degree of degradation was expressed as a % of the original gel mass.
# MPCs [6] = assay: Live/dead staining of MPCs encapsulated in HA/PEG hydrogels; type: cell-based, human; details: HA/PEG hydrogels containing the substance; 24 hrs and 7 days
# Protocol: (§3) MPCs (P4-6) were encapsulated in gels containing 15 mg/ml HATYR, 16.5 mg/ml PEGHPA. 0.25 U/ml horseradish peroxidase (HRP) and varying amounts of hydrogen peroxide (H2O2). Soluble PPS was added into the gels prior to crosslinking at a final concentration of 5 μg/ml. HA-PPS and HA-PPSCOOH were incorporated at concentrations of 16 μg/ml and 9 μg/ml respectively giving a concentration of PPS equivalent to 5 μg/ml unbound PPS.
# (§4) MPCs were resuspended to a concentration of 5×10^6 cells/ml in solution containing all of the components except H2O2 and thoroughly mixed. Crosslinking was then initiated by the addition of H2O2 and the gels spotted out into lowbinding tissue culture plates. After 15 minutes, growth media was added to the well and the cell/gel composites cultured for up to 21 days with media changes every 3-4 days.
# MPCs [7] = assay: Collagen-II immunofluorescence of MPC/hydrogel composites; type: cell-based, human; details: compared to gels alone
# Protocol: as §3, §4
# Samples were fixed in 4% paraformaldehyde for 20 min and rinsed with PBS. To detect Collagen-II, the samples were digested with 0.01% pepsin (w/v) in 0.01M HCL (pH2) for 30 min at 37° C. and incubated in 0.1% Triton-X-100 for […] at RT° C. before blocking in 2% BSA/2% goat serum for 1 hr. A Collagen-II antibody (Abram ab3092) was used at a dilution of 1/50 for 2 hrs followed by incubation with an AlexFluor 488-conjugated secondary antibody for 1 hr. […]
# [8] = absence of differentiation factors
substance,measurement,setting,value
dextran sulphate,Promotion of chondrogenesis of MPCs,MPCs [1],did not show any success
heparin,Promotion of chondrogenesis of MPCs,MPCs [1],did not show any success
hyaluronic acid [HA],MPC proliferation (CCK8 assay),MPCs [2],did not have this effect
same,Expression of BMP13,MPCs [3]; [8],no effect
same,GAG production by MPCs,MPCs [4]; exposure of MPCs to substance alone,did not produce any increase in GAG production
same,Proteoglycan (PG) synthesis by MPCs,MPCs [1]; higher concentrations,inhibited PG synthesis
same,Proteoglycan (PG) synthesis by MPCs,MPCs [1]; low concentrations,showed some stimulation
pentosan polysulfate [PPS],Expression of osteogenic transcription factor Runx2,"MPCs [3]; absence of any differentiation factors, vs untreated controls",small but significant decrease
same,Expression of the BMP antagonist Noggin,MPCs [3]; [8],decreased
same,Expression of BMP13,MPCs [3]; [8],significantly increased
same,GAG content (DMMB assay),"MPCs [4]; % of untreated pellets, after 21 days, no additional chondrogenic factors",150%
same,Gelation process of hydrogel,[5],slows the gelation process
same,Resulting modulus of hydrogel,[5],small decrease in resulting modulus
same,Change in swelling of hydrogel,Swelling of hydrogels,decreased
same,Viability of encapsulated MPCs,MPCs [6],retained good viability
same,Deposition of collagen-II around encapsulated MPCs,MPCs [7],increased
same,Promotion of chondrogenesis of MPCs,MPCs [1],induced the in vitro proliferation and chondrogenic differentiation of MPCs
